Assay results reported in article PMC5766233, “Ternary copper(II) complex: NCI60 screening, toxicity studies, and evaluation of efficacy in xenograft models of nasopharyngeal carcinoma” (PLoS ONE, 2018).

Legend:
[1] = Acute in vivo toxicity, single dose; design: species or system NOD scid gamma female mice
Description: Acute toxicity caused by the complex was tested on a method modified from the NCI single dose method. The experiment was performed to find the maximum tolerated dose (MTD) for the calculation of doses for repeat-dose animal testing; the experiment was designed to minimize both the use of compound tested and the number of animals to be sacrificed. […] Five doses, viz. 35.0, 17.5, 12.5, 7.5 and 5.5 mg/kg body weight of the Cu(II) complex, were injected intraperitoneally as single doses into each mouse respectively and the mice were observed daily for 14 days for drug-induced toxicity. The findings of the acute toxicity study are listed in S1 Table.
Determination of acute toxicity was carried out using a method adapted from the NCI [43]. Five mice were randomly separated into five cages. Five doses, i.e. 35.0, 17.5, 12.5, 7.5 and 5.5 mg/kg of body weight of Cu(II) complex were injected intraperitoneally as a single dose into each mouse respectively. After the drug administration, mice were observed hourly for any signs of toxicity, mortality, changes in general behavior and physical activities for the first 4 hours, then 4 hourly for 1 day followed by daily observation for 2 weeks. The signs which were monitored and recorded during this study included hypoactivity, lethargy, hypoapnoea, abnormal gait and posture, tremors, arching and rolling, convulsions, salivation and diarrhea. Mouse death during the period of observation was considered as death due to toxic effects of the test compound. The lethal dose and maximum tolerated dose (MTD) were determined during this study. At the end of the experiment, the survivors were sacrificed for necropsy. Gross and histopathological examinations were performed on the major internal organs including the heart, lung, liver, kidney and spleen.

HK1 xenograft = experiment: In vivo efficacy in HK1 xenograft model; design: species or system NOD scid gamma female mice
Description: Recognizing the relative lack of treatment options for advanced NPC compared to other major cancers in Malaysia and based on our previous finding of the anticancer activity against NPC cells, we proceeded to validate the anticancer properties of the Cu(II) complex in vivo using NPC xenograft models. To test the compound in vivo in the preclinical models, two pilot studies were carried out using the Cu(II) complex. First, the effects of the Cu(II) complex were investigated on HK1 xenograft bearing mice at three different dosage regimens (4, 6 and 8 mg/kg). […] Even though treatment with Cu(II) complex at 8 mg/kg every other day up to 3 doses was effective, 2 out of 7 mice were found deadand the experiment had to be terminated.
2.0 x 10^6 HK1 or C666-1-GFP-Luc2 cells in 100 μl RPMI media mixed with matrigel (BD Matrigel Basement Membrane Matrix; BD Biosciences, Bedford, MA, USA) was inoculated subcutaneously into the right lower flank of the NSG mice. Tumor growth was monitored and measured every other day using a digital caliper (Mitutoyo America Corporation, Aurora, Illinois, USA) until they reached 100–250 mm^3. Then, the mice were randomly assigned into treatment groups. The mice bearing HK1 xenograft tumor were divided into 3 treatment groups and a control (normal saline) group. The first batch received normal saline (one injection daily for 5 days), 6 mg/kg (one injection daily for 5 days) and 8 mg/kg (one injection every other day for 3 doses) of Cu(II) complex while the second batch received normal saline (one injection daily for 4 days), 4 mg/kg (one injection daily for 4 days), 6 mg/kg (one injection daily for 4 days) and 8 mg/kg (one injection every other day for 2 doses) of Cu(II) complex via intraperitoneal route.

CC(C)(N)C(=O)[O-].O.O=[N+]([O-])[O-].[Cu+2].c1cnc2c(c1)ccc1cccnc12 [Cu(II) complex, [Cu(phen)(C-dmg)(H2O)]NO3]
Mortality ([1]; 5.5 mg/kg single ip dose): No | Observation of mice behavioral and physical changes (after injection) ([1]; 5.5 mg/kg single ip dose): No clinical signs occurred. It showed normal behavior patterns when provoked. | Observation of mice behavioral and physical changes (later) ([1]; 5.5 mg/kg single ip dose): Normal behavior and activities. | Mortality ([1]; 7.5 mg/kg single ip dose): No | Observation of mice behavioral and physical changes (after injection) ([1]; 7.5 mg/kg single ip dose): No abnormal clinical signs occurred. It showed normal behavior patterns when provoked. | Observation of mice behavioral and physical changes (later) ([1]; 7.5 mg/kg single ip dose): Normal behavior and activities. | Mortality ([1]; 12.5 mg/kg single ip dose): No | Observation of mice behavioral and physical changes (after injection) ([1]; 12.5 mg/kg single ip dose): After drug injection, mouse stayed at corner of its cage but resumed its normal behavior and physical activities after 45 min. Body movement happened. It showed normal behavior patterns when provoked. | Observation of mice behavioral and physical changes (later) ([1]; 12.5 mg/kg single ip dose): Normal behavior and activities. | Mortality ([1]; 17.5 mg/kg single ip dose): No | Observation of mice behavioral and physical changes (after injection) ([1]; 17.5 mg/kg single ip dose): After drug injection, mouse stayed at corner of the cage but resumed its normal behavior and physical activities after 45 min. Body movement happened. It showed normal behavior patterns when provoked. | Observation of mice behavioral and physical changes (later) ([1]; 17.5 mg/kg single ip dose): Normal behavior and activities. | Histopathological examination, spleen ([1]; 35 mg/kg single ip dose): increased in multinucleated giant cells | Mortality ([1]; 35.0 mg/kg single ip dose): Yes | Observation of mice behavioral and physical changes (after injection) ([1]; 35.0 mg/kg single ip dose): Mouse was immobile and staying at one corner of the cage about 30 min after drug injection. After 0.5, 1, 2, 3 & 4 h, it was still immobile. Unresponsive to provocation. | Observation of mice behavioral and physical changes (later) ([1]; 35.0 mg/kg single ip dose): It was found dead on Day 2; blood stained urine noted. | MTD ([1]; single dose treatment, intraperitoneal, estimated): 17.5 mg/kg | LD50 ([1]; single intraperitoneal dose, estimated): 26.25 mg/kg | Histopathological examination, all organs examined ([1]; single ip doses other than 35 mg/kg): no significant morphological changes | mice found dead (HK1 xenograft; 8 mg/kg every other day up to 3 doses): 2 out of 7 | tumor growth (HK1 xenograft; 4, 6 and 8 mg/kg ip): significantly inhibited the growth of HK1 tumor | tolerability / body weight (HK1 xenograft; 4 and 6 mg/kg dose regimens): well tolerated with no significant body weight loss | Histopathological examination of heart, liver, kidney and lung (HK1 xenograft; all the groups): did not show any remarkable changes | weight of vital organs (HK1 xenograft; all treatment groups vs control): not significantly affected
